# What was measured:
# Type in all cases: cell-based
# Set-up in all cases: key: Compounds which showed superior inhibition of S. aureus, S. pseumoniae and E. coli are indicated by “***,”; compounds which showed very good or good inhibition of S. aureus, S. pseumoniae and E. coli are indicated by “**” or “*” respectively; compounds which showed very good or good inhibition of S. aureus, S. pseumoniae and E. coli are indicated by “**” or “*” respectively
# Conditions in all cases: broth microdilution in CAMHB, 35° C., approximately 18 hour
# [1] = system: S. aureus RN450; experiment: In vitro minimum inhibitory concentration (MIC) assay, S. aureus
# Description: (§1) The following assay is used to determine the efficacy of the tetracycline compounds against common bacteria. 2 mg of each compound is dissolved in 100 μl of DMSO. The solution is then added to cation-adjusted Mueller Hinton broth (CAMHB), which results in a final compound concentration of 200 μg per ml. The tetracycline compound solutions are diluted to 50 μL volumes, with a test compound concentration of 0.098 μg/ml. Optical density (OD) determinations are made from fresh log-phase broth cultures of the test strains. Dilutions are made to achieve a final cell density of 1×10^6 CFU/ml. At OD=1, cell densities for different genera should be approximately:
# (§2) 50 μl of the cell suspensions are added to each well of microtiter plates. The final cell density should be approximately 5×10^5 CFU/ml. These plates are incubated at 35° C. in an ambient air incubator for approximately 18 hour. The plates are read with a microplate reader and are visually inspected when necessary. The MIC is defined as the lowest concentration of the tetracycline compound that inhibits growth.
# (§3) Table 3 gives the MIC (μg/mL) of selected substituted tetracycline compounds against S. aureus, S. pseuimoniae, and E. coli.
# [2] = system: S. pneumoniae 157E; experiment: In vitro minimum inhibitory concentration (MIC) assay, S. pneumoniae
# Description: as §1, §2, §3
# [3] = system: E. coli MG 1655; experiment: In vitro minimum inhibitory concentration (MIC) assay, E. coli
# Description: as §1, §2, §3
Structure (SMILES),Median MIC for S. aureus RN450 [1],Median MIC for S. pneumoniae 157E [2],Median MIC for E. coli MG 1655 [3]
CN(C)c1cc(C(=O)NCCO)c(O)c2c1C[C@H]1C[C@H]3[C@H](N(C)C)C(O)=C(C(N)=O)C(=O)[C@@]3(O)C(O)=C1C2=O,*,*,*
CN(C)c1cc(-c2ccc(C#N)nc2)c(O)c2c1C[C@H]1C[C@H]3[C@H](N(C)C)C(O)=C(C(N)=O)C(=O)[C@@]3(O)C(O)=C1C2=O,***,***,*
CN(C)c1cc(C(=O)N2CCCCCC2)c(O)c2c1C[C@H]1C[C@H]3[C@H](N(C)C)C(O)=C(C(N)=O)C(=O)[C@@]3(O)C(O)=C1C2=O,**,*,*
CN(C)c1cc(C(=O)NCCN)c(O)c2c1C[C@H]1C[C@H]3[C@H](N(C)C)C(O)=C(C(N)=O)C(=O)[C@@]3(O)C(O)=C1C2=O,*,***,*
CC(=O)Nc1ccc(-c2cc(N(C)C)c3c(c2O)C(=O)C2=C(O)[C@]4(O)C(=O)C(C(N)=O)=C(O)[C@@H](N(C)C)[C@@H]4C[C@@H]2C3)cn1,***,***,*
CN(C)c1cc(C#N)c(O)c2c1C[C@H]1C[C@H]3[C@@H](N(C)C)C(O)=C(C(N)=O)C(=O)C3(O)C(O)=C1C2=O (stereo partly drawn),***,***,*
CN(C)c1cc(C(=O)NCC(C)(C)C)c(O)c2c1C[C@H]1C[C@H]3[C@H](N(C)C)C(O)=C(C(N)=O)C(=O)[C@@]3(O)C(O)=C1C2=O,***,**,*
CN(C)c1ccc(-c2cc(N(C)C)c3c(c2O)C(=O)C2=C(O)[C@]4(O)C(=O)C(C(N)=O)=C(O)[C@@H](N(C)C)[C@@H]4C[C@@H]2C3)cc1,***,***,*
COC(=O)C#Cc1cc(N(C)C)c2c(c1O)C(=O)C1=C(O)[C@]3(O)C(=O)C(C(N)=O)=C(O)[C@H](N(C)C)[C@@H]3C[C@@H]1C2,***,***,*
CN(C)c1cc(C(=O)N2CCCC2)c(O)c2c1C[C@H]1C[C@H]3[C@H](N(C)C)C(O)=C(C(N)=O)C(=O)[C@@]3(O)C(O)=C1C2=O,*,*,*
CN(C)c1cc(C(=O)C(=O)O)c(O)c2c1C[C@H]1C[C@H]3[C@H](N(C)C)C(O)=C(C(N)=O)C(=O)[C@@]3(O)C(O)=C1C2=O,**,*,*
CNC(=O)c1cc(N(C)C)c2c(c1O)C(=O)C1=C(O)[C@]3(O)C(=O)C(C(N)=O)=C(O)[C@@H](N(C)C)[C@@H]3C[C@@H]1C2,*,*,*
CN(C)c1cc(-c2ccncc2)c(O)c2c1C[C@H]1C[C@H]3[C@H](N(C)C)C(O)=C(C(N)=O)C(=O)[C@@]3(O)C(O)=C1C2=O,***,***,*
CC(=O)c1cccc(-c2cc(N(C)C)c3c(c2O)C(=O)C2=C(O)[C@]4(O)C(=O)C(C(N)=O)=C(O)[C@@H](N(C)C)[C@@H]4C[C@@H]2C3)c1,***,***,*
CCONC(=O)c1cc(N(C)C)c2c(c1O)C(=O)C1=C(O)[C@]3(O)C(=O)C(C(N)=O)=C(O)[C@@H](N(C)C)[C@@H]3C[C@@H]1C2,*,***,*
CN(C)c1cc(C(N)=O)c(O)c2c1C[C@H]1C[C@H]3[C@H](N(C)C)C(O)=C(C(N)=O)C(=O)[C@@]3(O)C(O)=C1C2=O,*,*,*

# Results, then the compound that gave them:
Median MIC for S. aureus RN450 [1],Median MIC for S. pneumoniae 157E [2],Median MIC for E. coli MG 1655 [3],Structure (SMILES)
*,*,*,CN(C)c1cc(-c2cccc(C(=O)O)c2)c(O)c2c1C[C@H]1C[C@H]3[C@H](N(C)C)C(O)=C(C(N)=O)C(=O)[C@@]3(O)C(O)=C1C2=O
***,**,*,CN(C)c1cc(-c2cccc(C(N)=O)c2)c(O)c2c1C[C@H]1C[C@H]3[C@H](N(C)C)C(O)=C(C(N)=O)C(=O)[C@@]3(O)C(O)=C1C2=O
***,***,**,CN(C)c1cc(C#N)c(O)c2c1C[C@H]1C[C@H]3[C@H](N(C)C)C(O)=C(C(N)=O)C(=O)[C@@]3(O)C(O)=C1C2=O
*,*,*,CN(C)c1cc(C(=O)NO)c(O)c2c1C[C@H]1C[C@H]3[C@H](N(C)C)C(O)=C(C(N)=O)C(=O)[C@@]3(O)C(O)=C1C2=O
***,***,*,CN(C)c1cc(-c2ccsc2)c(O)c2c1C[C@H]1C[C@H]3[C@H](N(C)C)C(O)=C(C(N)=O)C(=O)[C@@]3(O)C(O)=C1C2=O
*,*,*,CCCCNC(=O)c1cc(N(C)C)c2c(c1O)C(=O)C1=C(O)[C@]3(O)C(=O)C(C(N)=O)=C(O)[C@@H](N(C)C)[C@@H]3C[C@@H]1C2
***,***,*,CN(C)c1cc(-c2cnoc2)c(O)c2c1C[C@H]1C[C@H]3[C@H](N(C)C)C(O)=C(C(N)=O)C(=O)[C@@]3(O)C(O)=C1C2=O
***,***,*,CN(C)c1cc(-c2cnccn2)c(O)c2c1C[C@H]1C[C@H]3[C@H](N(C)C)C(O)=C(C(N)=O)C(=O)[C@@]3(O)C(O)=C1C2=O
*,*,*,CN(C)c1cc(C#CC(=O)O)c(O)c2c1C[C@H]1C[C@H]3[C@@H](N(C)C)C(O)=C(C(N)=O)C(=O)[C@@]3(O)C(O)=C1C2=O
*,*,*,CC(=O)c1cc(N(C)C)c2c(c1O)C(=O)C1=C(O)[C@]3(O)C(=O)C(C(N)=O)=C(O)[C@H](N(C)C)[C@@H]3C[C@@H]1C2
***,***,*,CN(C)c1cc(-c2ccccn2)c(O)c2c1C[C@H]1C[C@H]3[C@H](N(C)C)C(O)=C(C(N)=O)C(=O)[C@@]3(O)C(O)=C1C2=O
*,*,*,COC(=O)CNC(=O)c1cc(N(C)C)c2c(c1O)C(=O)C1=C(O)[C@]3(O)C(=O)C(C(N)=O)=C(O)[C@@H](N(C)C)[C@@H]3C[C@@H]1C2
*,**,*,CN(C)c1cc(-c2ccc(C(N)=O)cc2)c(O)c2c1C[C@H]1C[C@H]3[C@H](N(C)C)C(O)=C(C(N)=O)C(=O)[C@@]3(O)C(O)=C1C2=O
*,*,*,CCCNC(=O)c1cc(N(C)C)c2c(c1O)C(=O)C1=C(O)[C@]3(O)C(=O)C(C(N)=O)=C(O)[C@@H](N(C)C)[C@@H]3C[C@@H]1C2
*,*,*,CCCN(CC)C(=O)c1cc(N(C)C)c2c(c1O)C(=O)C1=C(O)[C@]3(O)C(=O)C(C(N)=O)=C(O)[C@@H](N(C)C)[C@@H]3C[C@@H]1C2
***,**,*,CN(C)c1cc(-c2ncccn2)c(O)c2c1C[C@H]1C[C@H]3[C@H](N(C)C)C(O)=C(C(N)=O)C(=O)[C@@]3(O)C(O)=C1C2=O

# — US8466132B2, “Substituted tetracycline compounds” (Paratek Pharmaceuticals, Inc., priority 2004, dated 2013)
